Measured values taken from patent US5047242A, “Azadirachtin derivative insecticides” (Native Plant Institute ("NPI"), priority 1987, dated 1991).
In brackets after ≈: the same amount, converted by molar mass. Entries after “also recorded” stand apart in the source; their conditions may differ. Like-named read-outs stand apart in the source and are kept apart here.

Experiments:
[1] = test system: Heliothis virescens; assay: Artificial diet feeding bioassay, mortality and growth inhibition in first-instar larvae; type: in vivo, Heliothis virescens (tobacco budworm); details: for EC50 (concentration causing 50% growth inhibition): Table 1, first-instar Heliothis virescens larvae, artificial diet, parentheses = 95% confidence limits
Text: The results of the growth inhibitory and lethal activities of azadirachtin and these 8 derivatives when fed in an artificial diet to Heliothis virescens larvae are shown in Table 1. Similar to the results of Morgan, E. D., in "Natural pesticides from the Neem tree (Azadirachta indica A. Juss), Schmutterer, H., et al., Eds., Proc. First International Neem Conference (Rottach-Egern, 1980), German Agency for Technical Corporation,Eschborn, Germany, 1982, pps. 43-52 (hereinafter "Morgan"), neither deacetylation nor hydrogenation of the carbon-carbon double bond of the dihydrofuran ring moiety of azadirachtin had any significant effect on activity of the compound against H. virescens.
Mortality and growth inhibition in first-instar Heliothis
virescens larvae fed azadirachtin and eight derivatives in an
artificial diet (I. Kubo and J. A. Klocke, In: Plant Resistance to
Insects (P. A. Helin, Ed.), ACS Symposium Series 208, American Chemical
Society, Washington, D.C. (1983), pp. 329-346.).^a
^b LC50 values are the concentrations (ppm) causing 50%
^c EC50 values are the concentrations (ppm) causing 50% growth
^d Numbers in parentheses are the 95% confidence limits determined
using the methods of Litchfield and Wilcoxon, J. Pharmacol. Exp. Ther.
An artificial diet feeding bioassay with neonate larvae of tobacco budworm (Heliothis virescens) and fall armyworm (Spodoptera frugiperda) was used as previously described (Kubo and Klocke, 1983) to detect insecticidal activities in the plant extracts to monitor fractionation, and to determine the potency of the isolated constituents and derivatives. Potency was determined either as the effective concentration (EC50) of added material that is necessary to reduce larval growth to 50% of the control values or as the lethal concentration (LC50) of added material that is necessary to kill 50% of the treated larvae. EC50 and LC50 values were determined from log probit paper and analyzed statistically by the method of Litchfield and Wilcoxon, supra.

[2] = UV stability in ethanol by reversed phase HPLC; type: physicochemical; details: for UV lability (in words): UV irradiation, HPLC
Method: Stability of Azadirachtin derivatives was determined as follows:
(§1) Azadirachtin, 3-deacetylazadirachtin, 22,23-dihydroazadirachtin, and 2',3',22,23-tetrahydroazadirachtin (1.0 mg/ml absolute ethanol) were placed individually in capped quartz NMR tubes (5×180 mm) and were irradiated with two UV germicidal lights (GE, G30T8, 200-280 nm, 30W) 1.8 m from the source at room temperature for up to 400 h. The controls were identical samples protected from exposure to UV radiation by wrapping with aluminum foil. At selected time intervals, aliquots from both the controls (non-irradiated) and irradiated samples were removed for high-performance liquid chromatography (HPLC) analysis and bioassay (vide infra).
Analytical reversed phase HPLC was performed on a phenyl (5μm) column run isocratically with acetonitrile-water (3:7) (Yamasaki et al.) Peaks were detected at 214 nm. The irradiated samples were compared with their corresponding non-UV-irradiated controls by measuring the height of the peak eluting at the appropriate Rt for each irradiated compound relative to each one's non-irradiated control. Results are expressed as the percent of the initial sample concentration remaining relative to the control. Each time point was done in at least triplicate fashion.

[3] = test system: Heliothis virescens; assay: Relative activity of UV-irradiated compounds in inhibiting pupal development of fifth-instar larvae; type: in vivo; details: for Relative activity, inhibition of pupal development: relative to non-irradiated counterpart; for activity retained after 90 h of exposure to UV radiation (in words): 90 h UV
Method: as §1
(§2) Individual larvae were injected per os on the first day of the fifth instar with 1.0 μg of either irradiated or non-irradiated compounds dissolved in 1.0 μl of 75% aqueous ethanol.
Table 3: Relative activity of azadirachtin, 3deacetylaza-dirachtin,
22,23dihydroazadirachtin, and 2',3',22,23tetrahydroazadirachtin, all of
which had been exposed for 15, 30, 90, 200, and 400 hours to UV radiation
inhibiting the pupal development of fifthinstar Heliothis virescens
(§3) larvae. Relative activity is defined as the percentage of larvae injected

[4] = test system: Heliothis virescens; assay: Oral injection of fifth-instar larvae, pupal and adult development (non-irradiated compounds); type: in vivo; details: for Number Adults / Number Adults Deformed / Number Pupae / Unsuccessful Larvae-Pupae (number) / Unsuccessful Pupae-Adult (number) / Adults (%) / Adults Deformed (%) / Pupae (%) / Unsuccessful Larvae-Pupae (%) / Unsuccessful Pupae-Adult (%): 1.0 microgram injected orally; for Number Adults / Number Adults Deformed / Number Pupae / Unsuccessful Larvae-Pupae (number) / Unsuccessful Pupae-Adult (number): fifth-instar; for Number Adults / Number Adults Deformed / Number Pupae / Unsuccessful Larvae-Pupae (number) / Unsuccessful Pupae-Adult (number) / inhibition of pupation (in words): non-irradiated; for Adults (%) / Adults Deformed (%) / Pupae (%) / Unsuccessful Larvae-Pupae (%) / Unsuccessful Pupae-Adult (%): % of larvae; for inhibition of pupation (in words): 1.0 μg per os
Method: as §2
Table 2: Successful and unsuccessful pupal and adult development of
fifthinstar Heliothis Virescens larvae injected orally with 1.0 microgram
of either azadirachtin, 3deacetylazadirachtin, 22,23dihydroazadirachtin,
or 2',3',22,23tetrahydroazadirachtin.

[5] = test system: Heliothis virescens; assay: Relative activity of UV-irradiated compounds in inhibiting adult development of fifth-instar larvae; type: in vivo; details: for Relative activity, inhibition of adult development: relative to non-irradiated counterpart; for ability to inhibit larvae from reaching the adult stage after UV (in words): 200 h UV
Method: as §1, §2
Table 4: Relative activity of azadirachtin, 3deacetylaza-dirachtin,
22,23dihydroazadirachtin, 2',3',22,23tetrahydroaza-dirachtin, all of whic
had been exposed for 15, 30, 90, 200, and 400 hours to UV radiation, in
inhibiting the adult development of fifthinstar Heliothis virescens
as §3
relative to the percentage injected with its nonirradiated counterpart

[6] = test system: insects; details: literature; cited from earlier work
[7] = test system: insects; assay: Antifeedant / systemic action; details: in vivo
[8] = test system: insect; details: Kubo & Klocke; cited from earlier work

In the case of C/C=C(\C)C(=O)OC1CC(OC(C)=O)C2(C(=O)OC)COC3C2C12COC(O)(C(=O)OC)C2C(C)(C12OC1(C)C1CC2OC2OCCC21O)C3O (stereo not shown) [22,23-dihydroazadirachtin], the “EC50 (concentration causing 50% growth inhibition)” value [1] was 0.08 (0.04-0.15) ppm, the “degradation following 400 h of exposure to UV radiation (in words)” value [2] was “none of the three compounds remained in their original state” and the “kinetics of UV degradation (in words)” value [2] was “first-order reaction”. For the same molecule, the “UV lability (in words)” value [2] was “UV-labile”, the “Relative activity, inhibition of pupal development” value ([3]; 15 h UV exposure) was 113.1% and the “Relative activity, inhibition of pupal development” value ([3]; 30 h UV exposure) was 104.6%. For the same molecule, the “activity retained after 90 h of exposure to UV radiation (in words)” value [3] was “retained full activity”, the “Relative activity, inhibition of pupal development” value ([3]; 90 h UV exposure) was 100.0% and the “ability to inhibit pupation after UV (in words)” value (shortened to “ability to inhibit pupation”) ([3]; 200 h UV) was “did decline”. The “Relative activity, inhibition of pupal development” value ([3]; 200 h UV exposure) was 72.7%, the “ability to inhibit pupation” value ([3]; 400 h UV) was “even greater decline” and the “activity retained after 400 h of exposure to UV radiation” value ([3]; 400 h UV) was “approximately 50%”. The “Relative activity, inhibition of pupal development” value ([3]; 400 h UV exposure) was 49.1%, the “ability to inhibit pupation” value ([3]; up to 90 h UV) was “not appreciably reduced” and the “Number Adults” value [4] was 6 Number. For the same molecule, the “Number Adults Deformed” value [4] was 5 Number, the “Number Pupae” value [4] was 47 Number and the “Unsuccessful Larvae-Pupae (number)” value [4] was 13 Number. The “Unsuccessful Pupae-Adult (number)” value [4] was 4 Number, the “Adults (%)” value [4] was 3.4% and the “Adults Deformed (%)” value [4] was 2.8%. For the same molecule, the “Pupae (%)” value [4] was 26.7%, the “Unsuccessful Larvae-Pupae (%)” value [4] was 7.4% and the “Unsuccessful Pupae-Adult (%)” value [4] was 2.3%. The “inhibition of pupation (in words)” value [4] was “less effective”, the “Relative activity, inhibition of adult development” value ([5]; 15 h UV exposure) was 103.5% and the “Relative activity, inhibition of adult development” value ([5]; 30 h UV exposure) was 100.1%. For the same molecule, the “Relative activity, inhibition of adult development” value ([5]; 90 h UV exposure) was 103.5%, the “ability to inhibit larvae from reaching the adult stage after UV (in words)” value [5] was “more so” and the “Relative activity, inhibition of adult development” value ([5]; 200 h UV exposure) was 69.0%. For the same molecule, the “Relative activity, inhibition of adult development” value ([5]; 400 h UV exposure) was 74.5%.
In the case of C/C=C(\C)C(=O)O[C@H]1C[C@@H](OC(C)=O)[C@@]2(C(=O)OC)CO[C@H]3[C@@H](O)[C@@](C)([C@]45O[C@@]4(C)[C@H]4C[C@@H]5O[C@@H]5OC=C[C@@]54O)[C@H]4[C@]1(CO[C@]4(O)C(=O)OC)[C@@H]32 [azadirachtin], the LC50 ([1]; Heliothis virescens, po, read-out: LC50 (concentration causing 50% mortality)) is listed as 0.8 µg/mL (≈ 1.11 µM), the “EC50 (concentration causing 50% growth inhibition)” value [1] is listed as 0.07 (0.05-0.10) ppm and the “ecdysis inhibitory activity (in words)” value [6] is listed as “potent ecdysis inhibitory activity; also recorded: same ecdysis inhibitory activity”. The “degraded after 90 h of exposure to UV radiation” value ([2]; 90 h UV) was “more than 80%”, the “degradation following 400 h of exposure to UV radiation (in words)” value ([2]; 400 h UV) was “none of the three compounds remained in their original state” and the “T1/2 of UV degradation” value ([2]; UV 200-280 nm, 1.0 mg/ml ethanol, room temperature) was 25 h. For the same molecule, the “UV lability (in words)” value [2] was “UV-labile”, the “kinetics of UV degradation (in words)” value ([2]; under the conditions used, data not shown) was “first-order reaction” and the “Relative activity, inhibition of pupal development” value ([3]; 15 h UV exposure) was 98.6%. The “Relative activity, inhibition of pupal development” value ([3]; 30 h UV exposure) was 98.9%, the “activity retained after 90 h of exposure to UV radiation (in words)” value [3] was “retained full activity” and the “Relative activity, inhibition of pupal development” value ([3]; 90 h UV exposure) was 85.7%. The “ability to inhibit pupation” value ([3]; 200 h UV) was “did decline”, the “Relative activity, inhibition of pupal development” value ([3]; 200 h UV exposure) was 74.2% and the “ability to inhibit pupation” value ([3]; 400 h UV) was “even greater decline”. The “activity retained after 400 h of exposure to UV radiation” value ([3]; 400 h UV) was “approximately 50%”, the “Relative activity, inhibition of pupal development” value ([3]; 400 h UV exposure) was 60.0% and the “ability to inhibit pupation” value ([3]; up to 90 h UV) was “not appreciably reduced”. For the same molecule, the “Number Adults” value [4] was 2 Number, the “Number Adults Deformed” value [4] was 1 Number and the “Number Pupae” value [4] was 10 Number. The “Unsuccessful Larvae-Pupae (number)” value [4] was 5 Number, the “Unsuccessful Pupae-Adult (number)” value [4] was 0 Number and the “Adults (%)” value [4] was 1.3%. For the same molecule, the “Adults Deformed (%)” value [4] was 0.7%, the “Pupae (%)” value [4] was 6.7% and the “Unsuccessful Larvae-Pupae (%)” value [4] was 3.4%. The “Unsuccessful Pupae-Adult (%)” value [4] was 0%, the mortality at 0.001 mg ([4]; Heliothis virescens, light or radiation study, po, read-out: % Mortality Prior to Adult Stage) was 98.7% and the “inhibition of pupation (in words)” value [4] was “equally effective”. For the same molecule, the “antifeedant function (in words)” value [7] was “function as antifeedants”, the “Relative activity, inhibition of adult development” value ([5]; 15 h UV exposure) was 101.3% and the “Relative activity, inhibition of adult development” value ([5]; 30 h UV exposure) was 101.3%. For the same molecule, the “Relative activity, inhibition of adult development” value ([5]; 90 h UV exposure) was 97.3%, the “ability to inhibit larvae from reaching the adult stage after UV (in words)” value [5] was “declined sligtly” and the “Relative activity, inhibition of adult development” value ([5]; 200 h UV exposure) was 89.7%. For the same molecule, the “Relative activity, inhibition of adult development” value ([5]; 400 h UV exposure) was 81.1%.
For C/C=C(\C)C(=O)O[C@@H]1C[C@H](O)[C@]23CO[C@H](C(=O)OC)[C@H]2[C@](C)([C@]24O[C@@]2(C)[C@H]2C[C@@H]4O[C@@H]4OC=C[C@@]42O)[C@H](O)[C@@H]2OC[C@@]1(C(=O)OC)[C@H]23 [deacetylazadirachtinol], the “ecdysis inhibitory activity (in words)” value [6] is listed as “same ecdysis inhibitory activity” and the “insect growth inhibitor activity, fold less active than azadirachtin” value [8] is listed as “about 2.5 fold”.
